Source: ChEMBL document CHEMBL1151492, “elastase inhibitors containing conformationally restricted lactams as P3-P2 dipeptide replacements” (Bioorg Med Chem Lett, 1993)
“And” between values parts separate entries of the source, which are not always exact repeats. Equal entries are not always repeated.

What was measured:
[1] = target: T1, Neutrophil elastase (Homo sapiens, UniProt P08246); assay: In vitro inhibitory activity against human leukocyte elastase
T1 sequence (P08246 whole entry): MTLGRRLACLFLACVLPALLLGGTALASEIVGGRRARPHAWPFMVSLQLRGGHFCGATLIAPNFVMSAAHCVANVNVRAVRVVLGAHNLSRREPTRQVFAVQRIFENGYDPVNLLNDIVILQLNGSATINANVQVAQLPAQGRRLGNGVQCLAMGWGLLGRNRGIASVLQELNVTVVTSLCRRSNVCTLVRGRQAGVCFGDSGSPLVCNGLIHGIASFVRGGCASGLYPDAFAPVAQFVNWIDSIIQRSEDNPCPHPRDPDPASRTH

[2] = tested on: Cricetinae gen. sp.; assay: Effective dose required to inhibit elastase induced pulmonary hemorrhage (EPH) lung model in hamsters; format: functional, Cricetulus griseus

`CC(C)C(NC(=O)CN1CCCC[C@H](NC(=O)c2ccc(C(=O)NS(=O)(=O)c3ccc(Cl)cc3)cc2)C1=O)C(=O)C(F)(F)F` (stereo not given in full) was tested, and the IC50 [1] was > 5 µM.

In the case of `CC(C)C(NC(=O)CN1CCC[C@H](NC(=O)c2ccc(C(=O)NS(=O)(=O)c3ccc(Cl)cc3)cc2)C1=O)C(=O)C(F)(F)F` (stereo not given in full), the IC50 [1] is reported as > 5 µM.

With `CC(C)C(NC(=O)CN(C(=O)[C@@H](NC(=O)c1ccc(C(=O)NS(=O)(=O)c2ccc(Cl)cc2)cc1)C(C)C)C1Cc2ccccc2C1)C(=O)C(F)(F)F` (stereo not given in full) the ED50 [2] was 4.8 µM.

In the case of `CC(C)C(NC(=O)CN1C(=O)[C@@H](NC(=O)c2ccc(C(=O)NS(=O)(=O)c3ccc(Cl)cc3)cc2)C[S+]([O-])c2ccccc21)C(=O)C(F)(F)F` (stereo not given in full), the IC50 [1] is reported as 6.8 µM and 6.2 µM.

With `CC(C)C(NC(=O)CN1CC[C@H](NC(=O)c2ccc(C(=O)NS(=O)(=O)c3ccc(Cl)cc3)cc2)C1=O)C(=O)C(F)(F)F` (stereo not given in full) the IC50 [1] was > 5 µM.
